Drawing on patent US10870647B2, “Imidazopyridine derivative, method for preparing same, and pharmaceutical composition containing same as active ingredient for preventing or treating cancer” (DAEGU-GYEONGBUK MEDICAL INNOVATION FOUNDATION, priority 2016, dated 2020), this text covers remaining binding for three compounds.

Experiment in all cases: Kinase selectivity, scanMAX Kinase assay panel (DiscoverX), % control at 1 uM
Format in all cases: binding

The target in test [1] is T1, scanMAX Kinase assay panel (Homo sapiens, UniProt O15197).
T1 construct: purchased DiscoverX
T1 sequence (O15197 32-1021): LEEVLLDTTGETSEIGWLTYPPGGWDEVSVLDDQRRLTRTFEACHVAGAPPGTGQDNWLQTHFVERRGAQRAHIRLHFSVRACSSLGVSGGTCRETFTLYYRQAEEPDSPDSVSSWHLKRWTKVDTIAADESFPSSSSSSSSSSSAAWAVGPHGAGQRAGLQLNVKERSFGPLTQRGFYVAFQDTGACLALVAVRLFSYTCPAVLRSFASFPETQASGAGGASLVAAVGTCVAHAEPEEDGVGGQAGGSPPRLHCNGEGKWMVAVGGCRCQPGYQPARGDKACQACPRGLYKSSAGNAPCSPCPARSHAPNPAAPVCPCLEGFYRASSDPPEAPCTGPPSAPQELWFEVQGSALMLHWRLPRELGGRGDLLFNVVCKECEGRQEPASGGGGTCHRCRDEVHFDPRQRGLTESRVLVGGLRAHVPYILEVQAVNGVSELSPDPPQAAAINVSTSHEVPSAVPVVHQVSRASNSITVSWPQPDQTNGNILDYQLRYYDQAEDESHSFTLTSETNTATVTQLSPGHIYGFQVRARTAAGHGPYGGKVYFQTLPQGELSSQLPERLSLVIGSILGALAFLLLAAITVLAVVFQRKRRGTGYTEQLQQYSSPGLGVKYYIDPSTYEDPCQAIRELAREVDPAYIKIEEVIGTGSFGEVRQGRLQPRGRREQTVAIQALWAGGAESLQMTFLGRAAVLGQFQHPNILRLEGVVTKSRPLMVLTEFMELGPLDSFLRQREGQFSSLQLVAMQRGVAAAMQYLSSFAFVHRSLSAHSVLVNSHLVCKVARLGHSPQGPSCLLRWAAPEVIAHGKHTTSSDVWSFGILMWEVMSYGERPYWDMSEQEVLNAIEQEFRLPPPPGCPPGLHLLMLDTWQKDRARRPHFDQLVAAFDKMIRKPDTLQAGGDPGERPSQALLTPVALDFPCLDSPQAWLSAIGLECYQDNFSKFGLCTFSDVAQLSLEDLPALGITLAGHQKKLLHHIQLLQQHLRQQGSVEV
The conditions noted are these: EPHB6; 1 uM; read-out: Percent Control (%). In short, it runs like this:
(§1)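 Read-out is percent of control, derived from the signal with compound relative to positive and negative controls: (compound − positive)/(negative − positive) × 100. Each enzyme received test drug at 1 uM in DMSO, and values under 35% count as active.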

Test [2] addresses T2, scanMAX Kinase assay panel (Homo sapiens, UniProt P16234).
T2 construct: purchased DiscoverX
The settings on record: PDGFRA; 1 uM; read-out: Percent Control (%). The procedure, abridged: as §1

The target in test [3] is T3, scanMAX Kinase assay panel (Homo sapiens, UniProt P31152).
T3 construct: purchased DiscoverX
T3 sequence (P31152 whole entry): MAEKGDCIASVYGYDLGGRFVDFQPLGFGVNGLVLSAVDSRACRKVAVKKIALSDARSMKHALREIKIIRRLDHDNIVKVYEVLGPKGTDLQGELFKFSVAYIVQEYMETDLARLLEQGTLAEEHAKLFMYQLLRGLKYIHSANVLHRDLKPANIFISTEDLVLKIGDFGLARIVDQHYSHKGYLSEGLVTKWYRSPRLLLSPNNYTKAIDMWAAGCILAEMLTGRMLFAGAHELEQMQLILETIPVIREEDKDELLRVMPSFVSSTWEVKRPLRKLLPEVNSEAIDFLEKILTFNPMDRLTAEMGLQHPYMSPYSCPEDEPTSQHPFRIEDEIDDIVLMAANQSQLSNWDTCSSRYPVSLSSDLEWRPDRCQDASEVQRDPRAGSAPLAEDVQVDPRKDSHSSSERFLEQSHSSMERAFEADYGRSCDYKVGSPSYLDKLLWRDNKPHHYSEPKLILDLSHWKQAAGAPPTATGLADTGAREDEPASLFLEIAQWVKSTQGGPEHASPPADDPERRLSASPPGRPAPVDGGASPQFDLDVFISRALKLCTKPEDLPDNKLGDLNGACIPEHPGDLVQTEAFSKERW
The conditions noted are these: ERK4; 1 uM; read-out: Percent Control (%). In short, it runs like this:
as §1

For test [4], the target named is T4, scanMAX Kinase assay panel (Homo sapiens, UniProt P33981).
T4 construct: purchased DiscoverX
T4 sequence (P33981 1-857): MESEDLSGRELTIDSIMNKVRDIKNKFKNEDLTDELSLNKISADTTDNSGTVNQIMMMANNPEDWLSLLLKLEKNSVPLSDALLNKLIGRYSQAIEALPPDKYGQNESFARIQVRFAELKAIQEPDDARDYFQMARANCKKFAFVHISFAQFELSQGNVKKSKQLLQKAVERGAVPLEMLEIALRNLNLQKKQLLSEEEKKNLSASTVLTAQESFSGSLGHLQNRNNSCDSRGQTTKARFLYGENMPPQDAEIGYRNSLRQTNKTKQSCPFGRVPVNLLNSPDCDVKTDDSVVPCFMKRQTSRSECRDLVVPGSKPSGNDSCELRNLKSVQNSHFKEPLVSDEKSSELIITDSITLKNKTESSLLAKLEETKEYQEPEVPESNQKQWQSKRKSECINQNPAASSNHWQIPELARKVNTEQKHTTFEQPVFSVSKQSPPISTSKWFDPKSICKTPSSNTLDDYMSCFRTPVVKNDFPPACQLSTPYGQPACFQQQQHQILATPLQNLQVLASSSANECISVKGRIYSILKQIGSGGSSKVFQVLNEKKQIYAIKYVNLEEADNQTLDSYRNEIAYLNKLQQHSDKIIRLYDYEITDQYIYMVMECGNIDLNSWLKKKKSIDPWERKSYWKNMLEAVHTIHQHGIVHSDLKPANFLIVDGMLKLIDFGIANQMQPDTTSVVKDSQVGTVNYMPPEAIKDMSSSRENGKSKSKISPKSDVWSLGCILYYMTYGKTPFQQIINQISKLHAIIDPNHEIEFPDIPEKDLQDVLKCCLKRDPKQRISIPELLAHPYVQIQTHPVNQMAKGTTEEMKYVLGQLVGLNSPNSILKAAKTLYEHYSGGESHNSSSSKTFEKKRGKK
The conditions noted are these: TTK; 1 uM; read-out: Percent Control (%). In short, it runs like this: as §1

Test [5] has as its target T5, scanMAX Kinase assay panel (Homo sapiens, UniProt Q04759).
T5 construct: purchased DiscoverX
The settings on record: PRKCQ; 1 uM; read-out: Percent Control (%). In short, it runs like this:
as §1

Test [6] concerns the target T6, scanMAX Kinase assay panel (Homo sapiens, UniProt Q86UE8).
T6 construct: purchased DiscoverX
The conditions noted are these: TLK2; 1 uM; read-out: Percent Control (%). The procedure, abridged: as §1

Test [7] deals with T7, scanMAX Kinase assay panel (Homo sapiens, UniProt Q8IU85).
T7 construct: purchased DiscoverX
T7 sequence (Q8IU85 whole entry): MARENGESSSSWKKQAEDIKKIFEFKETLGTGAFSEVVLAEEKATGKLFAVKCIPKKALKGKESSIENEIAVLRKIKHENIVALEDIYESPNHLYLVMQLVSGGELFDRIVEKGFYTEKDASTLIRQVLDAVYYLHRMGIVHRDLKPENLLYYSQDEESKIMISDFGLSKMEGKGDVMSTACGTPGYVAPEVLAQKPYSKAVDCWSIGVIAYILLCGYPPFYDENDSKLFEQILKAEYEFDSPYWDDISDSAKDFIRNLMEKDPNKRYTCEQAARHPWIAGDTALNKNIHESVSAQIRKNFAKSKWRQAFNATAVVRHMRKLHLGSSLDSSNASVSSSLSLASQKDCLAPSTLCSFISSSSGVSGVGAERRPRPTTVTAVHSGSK
The settings on record: CAMK1D; 1 uM; read-out: Percent Control (%). In short, it runs like this: as §1

T2 sequence (P16234 24-1089): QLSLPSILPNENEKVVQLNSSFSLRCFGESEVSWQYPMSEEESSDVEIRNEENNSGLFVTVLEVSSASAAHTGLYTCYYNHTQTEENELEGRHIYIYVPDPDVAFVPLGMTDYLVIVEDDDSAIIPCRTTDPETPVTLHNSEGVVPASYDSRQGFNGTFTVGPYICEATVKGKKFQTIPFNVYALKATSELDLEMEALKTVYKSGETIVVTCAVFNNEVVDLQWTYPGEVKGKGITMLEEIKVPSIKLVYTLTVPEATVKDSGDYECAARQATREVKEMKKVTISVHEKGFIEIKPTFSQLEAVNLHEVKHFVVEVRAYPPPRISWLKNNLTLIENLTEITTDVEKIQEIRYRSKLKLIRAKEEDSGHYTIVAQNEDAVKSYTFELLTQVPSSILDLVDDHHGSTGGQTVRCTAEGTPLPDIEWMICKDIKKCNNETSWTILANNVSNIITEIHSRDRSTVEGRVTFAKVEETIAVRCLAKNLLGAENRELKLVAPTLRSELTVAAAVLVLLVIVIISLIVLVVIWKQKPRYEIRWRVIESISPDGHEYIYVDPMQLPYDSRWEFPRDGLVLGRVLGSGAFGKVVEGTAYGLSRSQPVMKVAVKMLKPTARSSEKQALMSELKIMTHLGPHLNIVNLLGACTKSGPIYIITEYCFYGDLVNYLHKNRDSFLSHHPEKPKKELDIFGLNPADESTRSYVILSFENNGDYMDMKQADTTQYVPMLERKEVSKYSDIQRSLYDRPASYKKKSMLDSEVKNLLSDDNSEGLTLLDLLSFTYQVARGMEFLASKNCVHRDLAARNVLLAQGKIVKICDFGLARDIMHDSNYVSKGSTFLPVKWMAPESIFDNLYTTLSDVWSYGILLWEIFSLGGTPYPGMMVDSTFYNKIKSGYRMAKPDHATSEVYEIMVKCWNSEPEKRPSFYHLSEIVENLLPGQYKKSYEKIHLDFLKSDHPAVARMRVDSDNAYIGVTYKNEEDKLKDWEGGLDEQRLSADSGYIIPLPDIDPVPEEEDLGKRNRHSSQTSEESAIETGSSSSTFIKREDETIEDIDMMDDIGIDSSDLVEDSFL
T6 sequence (Q86UE8 whole entry): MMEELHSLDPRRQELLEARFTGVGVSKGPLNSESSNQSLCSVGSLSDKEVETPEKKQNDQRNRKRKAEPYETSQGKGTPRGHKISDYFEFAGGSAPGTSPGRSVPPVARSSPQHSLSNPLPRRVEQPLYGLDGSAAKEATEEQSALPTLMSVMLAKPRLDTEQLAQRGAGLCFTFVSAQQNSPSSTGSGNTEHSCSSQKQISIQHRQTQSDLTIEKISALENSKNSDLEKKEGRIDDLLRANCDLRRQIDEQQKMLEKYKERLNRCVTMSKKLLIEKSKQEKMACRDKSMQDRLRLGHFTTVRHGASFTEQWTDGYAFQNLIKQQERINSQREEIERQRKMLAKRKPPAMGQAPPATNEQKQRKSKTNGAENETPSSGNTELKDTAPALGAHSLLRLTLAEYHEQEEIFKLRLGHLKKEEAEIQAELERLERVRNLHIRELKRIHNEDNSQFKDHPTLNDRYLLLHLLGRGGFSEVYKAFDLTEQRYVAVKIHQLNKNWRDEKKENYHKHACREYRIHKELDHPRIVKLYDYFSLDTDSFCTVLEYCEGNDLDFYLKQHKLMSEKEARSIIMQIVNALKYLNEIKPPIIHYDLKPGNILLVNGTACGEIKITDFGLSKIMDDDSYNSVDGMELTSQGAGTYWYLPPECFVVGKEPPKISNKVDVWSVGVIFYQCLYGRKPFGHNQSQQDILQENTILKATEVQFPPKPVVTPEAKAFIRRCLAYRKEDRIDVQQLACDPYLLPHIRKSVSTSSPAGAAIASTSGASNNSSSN
T5 sequence (Q04759 whole entry): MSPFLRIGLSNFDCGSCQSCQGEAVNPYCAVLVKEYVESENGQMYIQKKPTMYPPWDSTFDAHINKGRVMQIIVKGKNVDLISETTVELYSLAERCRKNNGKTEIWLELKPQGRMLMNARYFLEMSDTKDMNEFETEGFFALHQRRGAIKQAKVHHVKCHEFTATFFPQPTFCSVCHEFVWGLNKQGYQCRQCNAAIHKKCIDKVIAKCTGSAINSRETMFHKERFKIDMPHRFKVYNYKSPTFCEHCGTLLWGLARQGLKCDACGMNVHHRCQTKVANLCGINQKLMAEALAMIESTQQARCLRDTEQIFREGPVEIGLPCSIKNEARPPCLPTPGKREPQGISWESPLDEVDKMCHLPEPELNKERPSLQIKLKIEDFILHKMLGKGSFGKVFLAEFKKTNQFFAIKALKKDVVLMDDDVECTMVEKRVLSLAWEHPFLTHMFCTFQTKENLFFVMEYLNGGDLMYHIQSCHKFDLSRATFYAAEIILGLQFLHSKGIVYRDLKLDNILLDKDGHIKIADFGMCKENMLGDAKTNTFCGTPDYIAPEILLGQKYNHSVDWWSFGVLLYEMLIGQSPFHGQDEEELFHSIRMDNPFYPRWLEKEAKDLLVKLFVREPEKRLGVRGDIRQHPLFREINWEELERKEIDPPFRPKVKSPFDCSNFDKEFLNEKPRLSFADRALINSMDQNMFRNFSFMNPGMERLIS

Take `Cc1ccc(C(=O)Nc2ccc(CN3CCN(C)CC3)c(C(F)(F)F)c2)cc1C#Cc1cnc2c(Nc3cnn(C)c3)cccn12` [Example 1, 4-methyl-3-((8-((1-methyl-1H-pyrazol-4-yl)amino)imidazo[1,2-a]pyridin-3-yl)ethynyl)-N-(4-((4-methylpiperazin-1-yl)methyl)-3-(trifluoromethyl)phenyl)benzamide]: the remaining binding at 1 µM in test [1] is 1%; in test [2] it was 1%; in test [3], 91%; in test [4], 12%; in test [5], 53%; in test [6], 86%. Further, the remaining binding at 1 µM in test [7] stood at 65%.

Regarding `Cc1cn(-c2cc(NC(=O)c3ccc(C)c(C#Cc4cnc5c(Nc6cnn(C)c6)cccn45)c3)cc(C(F)(F)F)c2)cn1` [Example 12, 4-methyl-N-(3-(4-methyl-1H-imidazol-1-yl)-5-(trifluoromethyl)phenyl)-3-((8-((1-methyl-1H-pyrazol-4-yl)amino)imidazo[1,2-a]pyridin-3-yl)ethynyl)benzamide], the remaining binding at 1 µM worked out at 0% in test [1]; 4% in test [2]; 100% in test [3]; 70% in test [4]; 87% in test [5]; 97% in test [6]. The remaining binding at 1 µM in test [7] is 82%.

Consider `Cc1ccc(NC(=O)C2(C(=O)Nc3ccc(F)cc3)CC2)cc1C#Cc1cnc2c(Nc3cnn(C(C)C)c3)cccn12` [Example 78], for which the remaining binding at 1 µM in test [1] came out at 0%; in test [2] it was 29%; in test [3] it was 100%; in test [4], 100%; in test [5], 85%; in test [6], 100%. Moreover, the remaining binding at 1 µM in test [7] was 98%.
